Reference: patent US6369297B1, “Inducible one-component plant gene tagging” (Academia Sinica, priority 2000, dated 2002)

Assays:
INAc transposition = experiment: 5-azacytidine as second inducer of transposition in tobacco seedlings harboring INAc; type: in vivo; conditions: 0.1 mM 5-azacytidine combined with 1 mM SA
Text: Other inducers. Given that 5-azacytidine was recently shown to enhance Ac excision in transformed plants (Scortecci et al., Plant Cell Physiol. 38:336-343, 1997), the use of this agent was examined as a second inducer to trigger transposition events in tobacco seedlings harboring INAc.

[1] = test system: transformed tobacco plants; experiment: Germination frequency of R1 progeny and fruiting of SA-treated transformed tobacco plants; type: in vivo
Method: (§1) An important feature of an inducible transposable element is its susceptibility to induced transposition in germinal tissue. Such susceptibility markedly increases the probability of success of transposon tagging in the isolation of important plant genes. To determine the effectiveness of INAc for gene tagging, the induction of transposition in germ-line tissue was studied using 14 transformed tobacco plants from lines IA, IM, IN, and IP. […] The R1 progeny was analyzed by comparing the germination frequency apparent on normal germination medium with that observed on germination medium containing hygromycin B, as summarized in Table 3.
Capsules are designated A through E.

[2] = test system: INAc transposition (PR-1a::TPase); experiment: SA induction of INAc transposition in flowering tissue; LUC assay of HygR R1 progeny; type: in vivo, tobacco
Method: (§2) Assay of reporter gene activities. Luciferase activity was determined as described in Howell et al., “Use of the firefly luciferase gene as a reporter of gene expression in plants,” In: Gelvin et al., eds, Plant Molecular Biology Manual, pp. B8/1-B8/11, Kluwer Academic Publishers, Dordrecht, 1989; using a Lumat LB 9501 luminometer (Berthold, Munich, Germany). For imaging of luciferase activity, hygromycin-resistant (Hyg^R) seedlings were sprayed with luciferin, incubated in the dark for 5 minutes, and then placed under a charge-coupled device camera (ChemiImager 4000; Alpha Innotech, San Leandro, Calif.) for detection of luminescence. Image acquisition and processing were performed with AlphaEase software (Alpha Innotech). Exposure time was 30 minutes.
as §1, with “Analysis of SA-induced transposition in R1 progeny of transformed tobacco plants. An” for “An”, “The flowering tissues of plants were sprayed with SA at concentrations of 50, 5, or 1 mM, and after 2 hours these tissues were watered to remove SA. […] The” for “The”
The proportion of LUC^+ seedlings after selection with hygromycin B was next determined. […] A large proportion of LUC^+ seedlings was apparent for transformed plants treated with SA (Table 3).
With this approach, the efficiency of INAc transposition was determined to be 0.2, 0.7, and 3.1% for transformed plants treated with 1, 5, and 50 mM SA, respectively, as shown in Table 4.

[3] = test system: INAc transposition (PR-1a::TPase); experiment: SA induction of INAc transposition in transgenic tobacco calli (luciferase activity of regenerated shoots); type: cell-based; conditions: for shoots exhibiting high luciferase activity: line IK; for shoots with luciferase activity (transposition frequency): lines IA, IC, IM1, IN1, IP1, IR1; for shoots exhibiting luciferase activity out of shoots from SA-treated calli: 0.1 and 1 mM SA pooled
Method: as §2
Induction of INAc transposition. […] The effect of SA on INAc transposition was determined by incubating Hyg^R calli with a diameter of 0.5 to 1 cm for various times on callus regeneration medium containing either 0.1 or 1 mM SA. The calli for the transformed lines IA, IC, and IK were directly divided from the primary regenerated calli, which were large and generated many primary transformed shoots. For transformed lines IF, IM, IN, IP, and IR, the calli were obtained from the primary transformants IF1, IM1, IN1, IP1, and IR1. Leaf disks were excised and incubated on callus regeneration medium to yield enough calli for induction experiments. The calli were treated with 0.1 mM SA for 60 days, or were incubated with 1 mM SA for 10 days and then transferred to normal callus regeneration medium for an additional 50 days. As a control, calli were incubated on normal callus regeneration medium for 60 days. Luciferase activity was measured in the shoots that developed from the calli during incubation and was expressed as −, +, ++, or +++ as described in Table 2.
The numerical values in Table 2 indicate the number of LUC^+ shoots that were regenerated from SA-treated tobacco calli. Symbols denoting the amount of luciferase activity (RLU per microgram of total protein) are as follows: (−) <50 (with no typical luciferase activity kinetics); (+) 50 to 500 RLU; (++) 500 to 5000 RLU; and (+++)>5000 RLU.

Nc1ncn([C@@H]2O[C@H](CO)[C@@H](O)[C@H]2O)c(=O)n1 [5-azacytidine]
transposition efficiency versus treatment with SA alone (INAc transposition): higher

O=C(O)c1ccccc1O [SA, salicylic acid]
frequency of fruiting ([1]; 50 mM SA sprayed on flowering tissues, watered off after 2 hours): marked decrease
germination frequency of R1 progeny ([1]; 50 mM SA, plants IA5 and IP6): low germination frequencies
S: Percentage of Hyg R progeny that were LUC+ ([2]; 1 mM SA, mean of tobacco lines IA, IM, IN, IP): 29%
number of seedlings showing high luciferase activity ([2]; 1 mM SA, of 1021 seedlings): 2 seedlings
S: Percentage of Hyg R progeny that were LUC+ ([2]; 1 mM SA, tobacco line IA): 33%
G: Percentage of Hyg R progeny that exhibited high luciferase activity ([2]; 1 mM SA, tobacco line IA (plant IA7)): 0.4%
S: Percentage of Hyg R progeny that were LUC+ ([2]; 1 mM SA, tobacco line IM): 11%
G: Percentage of Hyg R progeny that exhibited high luciferase activity ([2]; 1 mM SA, tobacco line IM (plant IM4)): 0.4%
G: Percentage of Hyg R progeny that exhibited high luciferase activity ([2]; 1 mM SA, tobacco line IN): 0%
S: Percentage of Hyg R progeny that were LUC+ ([2]; 1 mM SA, tobacco line IN): 9%
G: Percentage of Hyg R progeny that exhibited high luciferase activity ([2]; 1 mM SA, tobacco line IP): 0%
S: Percentage of Hyg R progeny that were LUC+ ([2]; 1 mM SA, tobacco line IP): 62%
HygR seedlings exhibiting high luciferase activity out of seedlings screened ([2]; 5 mM SA, capsule B of plant IP9): 12 out of 202
S: Percentage of Hyg R progeny that were LUC+ ([2]; 5 mM SA, mean of tobacco lines IA, IM, IN, IP): 47%
number of seedlings showing high luciferase activity ([2]; 5 mM SA, of 1000 seedlings): 7 seedlings
S: Percentage of Hyg R progeny that were LUC+ ([2]; 5 mM SA, tobacco line IA): 60%
G: Percentage of Hyg R progeny that exhibited high luciferase activity ([2]; 5 mM SA, tobacco line IA (plant IA6)): 0.4%
S: Percentage of Hyg R progeny that were LUC+ ([2]; 5 mM SA, tobacco line IM): 45%
G: Percentage of Hyg R progeny that exhibited high luciferase activity ([2]; 5 mM SA, tobacco line IM (plant IM5)): 0.8%
G: Percentage of Hyg R progeny that exhibited high luciferase activity ([2]; 5 mM SA, tobacco line IN): 0%
S: Percentage of Hyg R progeny that were LUC+ ([2]; 5 mM SA, tobacco line IN): 15%
S: Percentage of Hyg R progeny that were LUC+ ([2]; 5 mM SA, tobacco line IP): 68%
G: Percentage of Hyg R progeny that exhibited high luciferase activity ([2]; 5 mM SA, tobacco line IP (plant IP9)): 1.6%
S: Percentage of Hyg R progeny that were LUC+ ([2]; 50 mM SA, mean of tobacco lines IA, IP): 75%
number of seedlings showing high luciferase activity ([2]; 50 mM SA, of 32 seedlings): 1 seedling
S: Percentage of Hyg R progeny that were LUC+ ([2]; 50 mM SA, tobacco line IA): 70%
G: Percentage of Hyg R progeny that exhibited high luciferase activity ([2]; 50 mM SA, tobacco line IA (plant IA5)): 3.7%
G: Percentage of Hyg R progeny that exhibited high luciferase activity ([2]; 50 mM SA, tobacco line IP): 0%
S: Percentage of Hyg R progeny that were LUC+ ([2]; 50 mM SA, tobacco line IP): 100%
effect of SA concentration on frequency of LUC+ seedlings / transposition events in floral tissues ([2]; 1, 5, 50 mM SA): dose-dependent manner
LUC assay: LUC+ seedlings (activity class)/HygR seedlings assayed ([2]; plant 1M5, flowers sprayed 5 mM SA, R1 progeny, capsules A-E in successive rows): 30+152
seedlings exhibiting luciferase activity ([2]; plants exposed to SA (1, 5 or 50 mM) pooled, 785 out of 2053 seedlings): 38%
number of seedlings showing high luciferase activity ([2]; plants exposed to SA (1, 5 or 50 mM) pooled, of 2053 seedlings): 10 seedlings
shoots exhibiting medium (++) luciferase activity ([3]; 0.1 mM SA, IA and IP1 calli, two out of nine shoots): 22%
shoots exhibiting high luciferase activity ([3]; 0.1 mM SA, 1 out of 9 shoots): 11%
shoots with luciferase activity (transposition frequency) ([3]; 0.1 mM SA, 33 out of 45 shoots): 73%
induction of PR-1a::TPase expression and transposition events ([3]; 0.1 mM SA, tobacco calli): sufficient to induce the expression of PR-1a::TPase
shoots exhibiting medium (++) or high (+++) luciferase activity ([3]; 1 mM SA, IA and IP1 calli, 13 out of 25 shoots): 52%
shoots exhibiting high luciferase activity ([3]; 1 mM SA, 4 out of 16 shoots): 25%
shoots with luciferase activity (transposition frequency) ([3]; 1 mM SA, 27 out of 70 shoots): 39%
luciferase activity in shoots regenerated from callus ([3]; tobacco callus IC, presence of SA): not detected
luciferase activities of induced shoots versus uninduced shoots ([3]; tobacco line IK): slightly higher
shoots exhibiting luciferase activity out of shoots from SA-treated calli ([3]; tobacco line IM1): 11 out of 24
shoots exhibiting luciferase activity out of shoots from SA-treated calli ([3]; tobacco line IN1): 11 out of 20
shoots exhibiting luciferase activity out of shoots from SA-treated calli ([3]; tobacco line IP): 15 out of 17
shoots exhibiting luciferase activity out of shoots from SA-treated calli ([3]; tobacco line IR1): 12 out of 20
